Test results as given in patent US20260125379A1, “PRODRUG OF JAK KINASE INHIBITOR” (E-nitiate Biopharmaceuticals (Hangzhou) Co., Ltd, priority 2022, published 2026).
Read-outs that look alike come from different tables or passages of the source.

Legend:
JAK2 = JAK2 (Homo sapiens, UniProt O60674); assay: JAK2 kinase inhibition assay (ULight-JAK-1 substrate, Eu-labeled anti-phosphotyrosine antibody); assay type: biochemical; details: JAK2 0.125 nM, substrate 50 nM, ATP 10 μM, 1 hour at room temperature
JAK2, sequence (O60674 whole entry, species assumed): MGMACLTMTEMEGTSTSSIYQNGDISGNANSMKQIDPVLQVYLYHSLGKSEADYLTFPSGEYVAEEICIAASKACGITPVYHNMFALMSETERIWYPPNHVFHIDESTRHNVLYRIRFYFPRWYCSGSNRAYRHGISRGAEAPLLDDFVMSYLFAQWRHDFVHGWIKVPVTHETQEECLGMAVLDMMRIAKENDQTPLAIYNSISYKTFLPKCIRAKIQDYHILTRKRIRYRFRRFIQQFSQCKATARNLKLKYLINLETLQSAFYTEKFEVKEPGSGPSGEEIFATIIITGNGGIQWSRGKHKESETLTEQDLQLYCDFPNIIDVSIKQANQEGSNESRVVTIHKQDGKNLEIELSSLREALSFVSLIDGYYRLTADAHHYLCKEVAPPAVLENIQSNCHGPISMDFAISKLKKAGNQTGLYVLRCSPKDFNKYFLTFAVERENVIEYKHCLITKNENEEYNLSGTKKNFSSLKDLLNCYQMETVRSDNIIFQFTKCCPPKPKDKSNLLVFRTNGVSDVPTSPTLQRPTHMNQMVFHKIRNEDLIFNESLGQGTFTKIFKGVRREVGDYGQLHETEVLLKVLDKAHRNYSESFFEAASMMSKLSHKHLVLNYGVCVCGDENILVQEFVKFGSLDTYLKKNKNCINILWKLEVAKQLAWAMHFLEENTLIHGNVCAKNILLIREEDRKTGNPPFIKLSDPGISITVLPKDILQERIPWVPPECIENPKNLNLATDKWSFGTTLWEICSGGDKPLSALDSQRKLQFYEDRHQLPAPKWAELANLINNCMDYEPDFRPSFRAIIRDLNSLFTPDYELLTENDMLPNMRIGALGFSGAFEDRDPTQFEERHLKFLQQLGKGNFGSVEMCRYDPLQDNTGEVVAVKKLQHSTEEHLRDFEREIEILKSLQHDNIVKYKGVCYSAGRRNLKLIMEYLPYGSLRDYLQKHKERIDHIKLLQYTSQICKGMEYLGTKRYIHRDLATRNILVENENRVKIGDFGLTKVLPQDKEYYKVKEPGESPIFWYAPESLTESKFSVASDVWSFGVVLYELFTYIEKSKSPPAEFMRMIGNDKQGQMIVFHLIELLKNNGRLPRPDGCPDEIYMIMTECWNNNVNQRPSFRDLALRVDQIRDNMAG
Method: (§1) Example A: Activity Detection of JAK Kinase Small Molecule Inhibitors
(§2) Kinase reaction buffer was prepared with the following components: 50 mM HEPES, pH 7.5, 1 mM EGTA, 10 mM MgCl2, 2 mM DTT, 0.01% Tween20.
(§3) Detection buffer was prepared by diluting 10× detection buffer to IX with deionized water in a ratio of 9:1.
(§4) JAK kinase was diluted with kinase reaction buffer to 4× final concentration (JAK1: 40 nM, JAK2: 0.5 nM).
(§5) ULight™-JAK-1 (Tyr1023) substrate was diluted with kinase reaction buffer to 200 nM (final concentration: 50 nM).
(§6) ATP was diluted with kinase reaction buffer to 4× final concentration (JAK1: 160 μM, JAK2: 40 μM).
(§7) Compound to be tested was dissolved with DMSO to obtain a 10 mM storage solution, which was diluted to desired concentrations by a 3-fold gradient; for each compound 10 concentration points were set, and the final concentration of the compound to be tested ranges from 10 μM to 0.5 nM.
(§8) EDTA was dissolved with 1× detection buffer to 40 mM (EDTA final concentration: 10 mM).
(§9) Eu-labeled detection antibody (anti-phosphotyrosine (PT66)) was diluted with 1× detection buffer to 8 nM (final antibody concentration: 2 nM).
(§10) (1) To a 384-well plate, 2.5 μL 4× kinase solution and 2.5 μL 4× test compound solution with different concentrations that have been diluted were added successively, each concentration was set in duplicate, and an enzyme solution blank control and a negative control (DMSO group) were also set.
(§11) (2) The 384-well plate was shaken to mix enzyme and compound well, and then centrifuged at 1000 rpm for 1 minute, and incubated at room temperature for 60 minutes.
(§12) (3) 2.5 μL 4× substrate solution was added to the 384-well plate and centrifuged at 1000 rpm for 1 minute.
(§13) (4) 2.5 μL 4× ATP solution was added to the 384-well plate and centrifuged at 1000 rpm for 1 minute, and then enzyme reaction was initiated.
(§14) (5) For JAK1 the reaction was carried out at room temperature for 2 hours, and for JAK2 the reaction was carried out at room temperature for 1 hour.
For the JAK2 reaction, the final concentrations of component are as follows: JAK2: 0.125 nM, substrate: 50 nM, ATP: 10 μM; and the final concentration of the tested compound ranges from 10 μM to 0.5 nM.
(§15) (7) After the enzyme reaction was completed, 5 μL 4× enzyme reaction termination solution was added to each well of the 384-well plate, and then centrifuged at 1000 rpm for 1 minute and incubated at room temperature for 5 minutes.
(§16) (8) 5 μL 4× detection antibody solution (the final concentration of detection antibody is 2 nM) was added to each well of the 384-well plate, and then centrifuged at 1000 rpm for 1 minute and incubated at room temperature for 1 hour.
(§17) (9) At the antibody incubation was completed, signal value of each well was measured on a Envision plate reader.
(§18) (1) The percentage inhibition rate corresponding to each concentration of the tested compound was calculated on the basis that the blank control of enzyme solution corresponds to 100% and the negative control (DMSO group) corresponds to 0%.
(§19) (2) A nonlinear regression analysis of the logarithm of the concentration of the detected compound and the corresponding percentage inhibition rate was performed in GraphPad Prism software to obtain the half-inhibiting concentration (IC50) of the tested compound.

[1] = Plasma pharmacokinetics in rats after single gavage; assay type: in vivo; details: SD rats; for presence of the prodrug in plasma (in words): after gavage of the prodrug itself; for Cmax (ng · mL^−1) / AUC0-t / Cmax / Tmax: plasma
Method: (§20) Compounds A1, A2, A3, B3, B6 and B3 were administered once to SD rats by gavage. The concentrations of medicaments and metabolites thereof in plasma were collected and measured at different time points, and the pharmacokinetic parameters of each compound were calculated to study the pharmacokinetic characteristics of the compounds in plasma of SD rats. Fecal samples at 8 and 24 hours were collected simultaneously, and the concentrations of prodrugs and degraded products were detected to investigate the excretion recovery rate.
(§21) Rats were grouped in groups of 3, and all SD rats were fasted overnight (12 hours or more) the day before the experiment. On the day of the experiment, after weighing the body weight, the rats were administrated once with compound A1, A2, A3, B3, B6, and B3 by gavage respectively. SD rats were able to resume eating 4 hours after administration and were able to drink freely during the experiment. 0.20 mL of blood was collected from the jugular vein before administration and at 0.5, 1, 2, 4, 8, 12, and 24 hours after administration, respectively, and was placed in EDTA-K2 anticoagulation tube. All whole blood samples were centrifuged at 1500 g to 1600 g for 10 minutes within half an hour after collection to separate plasma, which was stored in a refrigerator at a temperature of between −90° C. and −60° C. for sample analysis. All the feces from the metabolic cage chassis were collected at 24 h after administration and weighed accurately. The required volume of homogenate liquid (aqueous solution containing 20% methanol) was added at a weight/volume ratio of 1:10, and the resultant was homogenized and analyzed.

[2] = Fecal excretion (cumulative recovery) in rats after single gavage; assay type: in vivo; details: feces, SD rats
Method: as §20, §21

JAK1 = JAK1 (Homo sapiens, UniProt P23458); assay: JAK1 kinase inhibition assay (ULight-JAK-1 substrate, Eu-labeled anti-phosphotyrosine antibody); assay type: biochemical; details: JAK1 10 nM, substrate 50 nM, ATP 40 μM, 2 hours at room temperature
JAK1, sequence (P23458 whole entry, species assumed): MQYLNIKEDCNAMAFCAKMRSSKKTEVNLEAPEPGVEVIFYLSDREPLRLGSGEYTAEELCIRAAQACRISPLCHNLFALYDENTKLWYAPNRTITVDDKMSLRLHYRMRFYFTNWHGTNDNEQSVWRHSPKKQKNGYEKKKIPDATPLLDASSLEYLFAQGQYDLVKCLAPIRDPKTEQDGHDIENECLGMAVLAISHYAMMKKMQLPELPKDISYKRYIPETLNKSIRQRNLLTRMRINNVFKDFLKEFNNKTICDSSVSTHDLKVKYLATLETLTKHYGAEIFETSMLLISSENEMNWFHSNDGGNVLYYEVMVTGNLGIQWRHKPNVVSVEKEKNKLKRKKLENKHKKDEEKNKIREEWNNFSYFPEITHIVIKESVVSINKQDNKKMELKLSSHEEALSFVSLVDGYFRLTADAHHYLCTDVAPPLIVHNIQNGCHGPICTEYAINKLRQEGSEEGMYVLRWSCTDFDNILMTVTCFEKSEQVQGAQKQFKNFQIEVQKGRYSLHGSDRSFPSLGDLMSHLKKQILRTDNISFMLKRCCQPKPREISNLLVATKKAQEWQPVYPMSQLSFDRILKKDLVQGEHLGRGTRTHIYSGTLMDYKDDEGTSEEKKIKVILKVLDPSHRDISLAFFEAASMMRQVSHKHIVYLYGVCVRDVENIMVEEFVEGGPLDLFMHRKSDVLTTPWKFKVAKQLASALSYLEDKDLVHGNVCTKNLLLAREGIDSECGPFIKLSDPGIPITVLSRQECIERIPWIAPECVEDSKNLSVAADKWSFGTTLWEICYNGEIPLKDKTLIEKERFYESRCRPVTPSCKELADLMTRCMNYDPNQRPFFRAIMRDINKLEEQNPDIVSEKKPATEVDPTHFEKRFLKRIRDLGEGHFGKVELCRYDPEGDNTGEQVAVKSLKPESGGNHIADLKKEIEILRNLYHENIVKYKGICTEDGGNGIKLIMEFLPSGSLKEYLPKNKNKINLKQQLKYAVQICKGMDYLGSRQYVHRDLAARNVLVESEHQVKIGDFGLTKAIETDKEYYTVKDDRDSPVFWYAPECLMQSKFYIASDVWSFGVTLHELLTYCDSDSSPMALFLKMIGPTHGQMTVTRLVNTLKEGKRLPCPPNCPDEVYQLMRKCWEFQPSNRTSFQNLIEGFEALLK
Method: as §1, §2, §3, §4, §5, §6, §7, §8, §9, §10, §11, §12, §13, §14
(6) For the JAK1 reaction, the final concentrations of components are as follows: JAK1: 10 nM, substrate: 50 nM, ATP: 40 μM; and the final concentration of the tested compounds ranges from 10μ M to 0.5 nM.
as §15, §16, §17, §18, §19

[3] = Pharmacokinetics in rats in vivo: A13 in plasma and colon tissue after equimolar A3 or A13; details: SD rats, A3 30 mg/kg vs A13 15 mg/kg (equal molar) by gavage, FIG. 1
Method: Compounds A3 and A13 were administered once to SD rats by gavage in an equal molar amount relative to the body weight of rats. The concentration of the medicaments and metabolites thereof in plasma and colon tissues were collected and measured at different time points, and the pharmacokinetic parameters of the compounds were calculated to compare the pharmacokinetic characteristics of the prodrug and the active metabolite in SD rats in vivo.
Rats were grouped in groups of 27, and all SD rats were fasted overnight (12 hours or more) the day before the experiment. On the day of the experiment, after weighing the body weight, the compounds A3 (30 mg/kg) and A13 (15 mg/kg) were administered once by gavage respectively. SD rats were able to resume eating after 4 hours of administration and were able to drink freely during the experiment. Plasma and colonic tissue were collected at 0.5, 1, 2, 4, 6, 8, 12, 24 and 48 hours after the administration to detect the concentration of A13 in the plasma and colon tissue homogenate liquid.

[4] = administration group Compound A1 50 mg/kg by gavage
[5] = administration group Compound A2 50 mg/kg by gavage
[6] = administration group Compound A3 40 mg/kg by gavage
[7] = administration group Compound B3 33 mg/kg (equimolar with B6) by gavage
[8] = administration group Compound B6 50 mg/kg by gavage
[9] = rat, po, administration group Compound B6 50 mg/kg by gavage, read-out: Cmax
[10] = rat, po, administration group Compound B6 50 mg/kg by gavage, read-out: Tmax

Structure (SMILES) | IC50 (JAK2) [nM] | presence of the prodrug in plasma (in words) [1] | Cumulative recovery rate at 24 h (%) [2, 4] [%] | IC50 (JAK1) [nM] | Cumulative recovery rate at 24 h (%) [2, 5] [%] | AUC0-t [1, 6] [ng·h/g] | Cumulative recovery rate at 24 h (%) [2, 6] [%] | Cmax [1, 9] [ng/mL] | Tmax [1, 10] [h] | Cumulative recovery rate at 24 h (%) [2, 8] [%] | other results
C[C@@H](OC(=O)CCc1ccccc1/N=N/c1ccc(O)c(C(=O)O)c1)c1nc2cnc3[nH]ccc3c2n1N1CCC(CC#N)CC1 [Compound A1, (R,E)-5-((2-(3-(1-(1-(4-(cyanomethyl)piperidin-1-yl)-1,6-dihydroimidazo[4,5-d]pyrrolo[2,3-b]pyridin-2-yl)ethoxy)-3-oxopropyl)phenyl)diazenyl)-2-hydroxybenzoic acid] | 536 | absent or rarely present in plasma | 83 | 133 |  |  |  |  |  |  | Cmax (ng · mL^−1) [1, 4]: BLOQ
C[C@@H](OC(=O)OCc1ccc(/N=N/c2ccc(O)c(C(=O)O)c2)cc1)c1nc2cnc3[nH]ccc3c2n1N1CCC(CC#N)CC1 [Compound A2, (R,E)-5-((4-((((1-(1-(4-cyanomethylpiperidin-1-yl)-1,6-dihydroimidazo[4,5-d]pyrrolo[2,3-b]pyridin-2-yl)ethoxy)carbonyl)oxy)methyl)phenyl)diazenyl)-2-hydroxybenzoic acid] | 27 | absent or rarely present in plasma |  | 5.94 | 7.2 |  |  |  |  |  | Cmax (ng · mL^−1) [1, 5]: BLOQ
C[C@@H](OC(=O)C(C)(C)Oc1ccccc1/N=N/c1ccc(O)c(C(=O)O)c1)c1nc2cnc3[nH]ccc3c2n1N1CCC(CC#N)CC1 [Compound A3, (R,E)-5-((2-((1-(1-(1-(4-cyanomethylpiperidin-1-yl)-1,6-dihydroimidazo[4,5-d]pyrrolo[2,3-b]pyridin-2-yl)ethoxy)-2-methyl-1-oxopropan-2-yl)oxy)phenyl)diazenyl)-2-hydroxybenzoic acid] | 102 | absent or rarely present in plasma |  | 7.04 |  | 8.92 | 0.78 |  |  |  | Cmax ([1]; rat, po, administration group Compound A3 40 mg/kg by gavage, read-out: Cmax): 2.08 ng/mL; Tmax ([1]; rat, po, administration group Compound A3 40 mg/kg by gavage, read-out: Tmax): 4 h; amount (AUC) of active metabolite A13 in the colonic tissue after prodrug A3 compared with compound A13 ([3]; colon tissue 0.5-48 hours): more in the colonic tissue; amount (AUC) of active metabolite A13 in the blood after prodrug A3 compared with compound A13 ([3]; plasma 0.5-48 hours): less in the blood
C[C@@H](O)c1nc2cnc3[nH]ccc3c2n1N1CCC(CC#N)CC1 [Compound A13, (R)-2-(1-(2-(1-(hydroxyethyl))imidazo[4,5-d]pyrrolo[2,3-b]pyridin-1(6H)-yl)piperidin-4-yl)acetonitrile] |  |  | 11.6 |  | 24.8 | 836 | 34.3 |  |  |  | Cmax [1, 4]: 9.1 ng/mL; Tmax [1, 4]: 12 h; AUC0-t [1, 5]: 972 ng·h/g; Cmax [1, 5]: 80.6 ng/mL; Tmax [1, 5]: 4 h; Cmax [1, 6]: 69.9 ng/mL; Tmax [1, 6]: 12 h
N#CC[C@H]1CC[C@H](n2c(N)nc3cnc4[nH]ccc4c32)CC1 [Compound B3, 2-((1R,4R)-4-(2-aminoimidazo[4,5-d]pyrrolo[2,3-b]pyridin-1(6H)-ethyl)cyclohexyl)acetonitrile] | 0.37 |  |  | 0.04 |  |  |  | 4.8 | 12 | 82.1 | AUC0-t [1, 7]: 324 ng·h/g; AUC0-t [1, 8]: 69.1 ng·h/g; Cmax ([1]; rat, po, administration group Compound B3 33 mg/kg (equimolar with B6) by gavage, read-out: Cmax): 126 ng/mL; Tmax ([1]; rat, po, administration group Compound B3 33 mg/kg (equimolar with B6) by gavage, read-out: Tmax): 1.2 h; Cumulative recovery rate at 24 h (%) [2, 7]: 71.2%
N#CC[C@H]1CC[C@H](n2c(/N=N/c3ccc(O)c(C(=O)O)c3)nc3cnc4[nH]ccc4c32)CC1 [Compound B6, 5-((E)-(1-((1R,4R)-4-(cyanomethyl)cyclohexyl)-1,6-dihydroimidazo[4,5-d]pyrrolo[2,3-b]pyridin-2-yl)diazenyl)-2-hydroxybenzoic acid] | 0.81 | absent or rarely present in plasma |  | 0.45 |  |  |  | 0.7 | 4 | 5.1 | blood system absorption (AUC0-t) of the active metabolite B3 after prodrug B6 compared with direct oral equimolar B3 ([1]; B6 50 mg/kg vs B3 33 mg/kg by gavage): significant reduction
